According to a compilation of properties of binary mixtures (doi:10.1080/00986445.2015.1114477):

Assay: xn = mol fraction of the nth substance listed
Details: 100 kPa

CN1CCCC1=O + CCCCCC[n+]1ccn(C)c1.[Cl-]
x1 = 1
Details	viscosity [mPa·s]
288.15 K	1.989
293.15 K	1.853
298.15 K	1.679
303.15 K	1.556
308.15 K	1.441
313.15 K	1.323
318.15 K	1.259
323.15 K	1.148
328.15 K	1.065
333.15 K	1.029

CCCCCCCCn1cc[n+](C)c1.[Cl-] + CN1CCCC1=O
viscosity [mPa·s]
Details	288.15 K	293.15 K	298.15 K	303.15 K	308.15 K	313.15 K	318.15 K	323.15 K	328.15 K	333.15 K
x2 = 0.21	–	2103	1299	878	619	442	–	–	–	137.7
x2 = 0.3221	1176	–	–	384	279	208	156.4	120.6	94.4	76.3
x2 = 0.43	560	390	279	207	154.3	117.6	91.2	72	57.7	46.7
x2 = 0.5321	204	149.8	112.3	86.1	67.1	53.3	–	35.6	29.5	24.9
x2 = 0.6343	86	66.1	51.9	41.4	33.5	27.6	22.98	19	16.2	14.09
x2 = 0.7195	32.3	26.2	21.09	17.68	–	12.7	10.97	9.55	8.38	7.41
x2 = 0.8143	12.78	10.86	9.32	8.08	7.07	6.24	–	–	4.46	4.04
x2 = 0.9085	5.24	4.63	4.13	3.71	–	3.05	2.79	2.57	2.377	2.211

CN1CCN(C)C1=O + CCCCCCCCn1cc[n+](C)c1.[Cl-]
viscosity [mPa·s]
Details	288.15 K	293.15 K	298.15 K	303.15 K	308.15 K	313.15 K	318.15 K	323.15 K	328.15 K	333.15 K
x2 = 0	2.368	2.139	1.945	1.76	1.616	1.491	1.381	1.28	1.195	1.117
x2 = 0.105	7.99	6.88	5.98	5.25	4.64	4.14	3.72	3.36	–	2.78
x2 = 0.2056	29.6	24	19.66	–	14	11.99	10.25	8.93	7.84	6.92
x2 = 0.3018	–	67.9	53.2	42.4	34.3	28.2	23.45	19.75	16.69	14.54
x2 = 0.3991	217	–	118.5	90.5	70.8	56.4	45.7	37.5	–	26.3
x2 = 0.4964	–	420	295	–	170.9	–	–	–	63.2	51.6
x2 = 0.6016	1500	990	669	467	335	245	196	149.3	116	91.4
x2 = 0.7007	–	1973	1290	874	608	431	315	251	191	–
x2 = 0.7994	–	–	2473	1632	–	–	551	404	301	229

CN1CCN(C)C1=O + CCCCCC[n+]1ccn(C)c1.[Cl-]
viscosity [mPa·s]
Details	288.15 K	293.15 K	298.15 K	303.15 K	308.15 K	313.15 K	318.15 K	323.15 K	328.15 K	333.15 K
x2 = 0	–	2.139	1.945	1.76	–	1.491	1.381	1.28	–	1.117
x2 = 0.1007	–	5.49	4.82	4.26	3.8	3.41	3.08	–	2.55	2.337
x2 = 0.1999	18.72	15.59	13.12	–	–	7.42	6.47	5.7	5.07	4.54
x2 = 0.2985	49.9	39.2	31.2	25.4	20.72	17.34	14.87	–	11.09	–
x2 = 0.3856	124.2	92.5	71.6	55.9	–	35.7	29.2	24.3	20.29	17.2
x2 = 0.4985	301	214	155.5	116.4	88.9	69.2	54.9	–	37.1	29.9
x2 = 0.6069	707	477	332	241	185	138.5	106.2	82.7	64.8	52.5
x2 = 0.6969	1575	1029	694	478	338	246	–	137.9	106.7	83.8
x2 = 0.7981	–	2308	1473	978	666	468	335	247	184	141.2

CCCCCC[n+]1ccn(C)c1.[Cl-] + CN1CCCC1=O
viscosity [mPa·s]
Details	288.15 K	293.15 K	298.15 K	303.15 K	308.15 K	313.15 K	318.15 K	323.15 K	328.15 K	333.15 K
x2 = 0.2211	2552	1609	–	699	–	342	247	186	140.1	109.4
x2 = 0.3181	1037	687	–	329	239	176	132.3	–	79.8	63.8
x2 = 0.4223	406	–	207	–	115.1	87.7	68.5	–	–	36.7
x2 = 0.5271	167.3	123.1	–	71.4	55.9	45.3	36.7	30.2	25.1	21.19
x2 = 0.6327	63.8	49.7	39.4	31.7	26	–	17.7	15.13	13.09	11.35
x2 = 0.718	29.2	23.7	–	16.08	–	–	10.04	8.75	–	6.77
x2 = 0.8139	11.44	9.86	–	7.37	–	5.71	5.08	4.55	4.07	3.68
x2 = 0.9083	4.69	4.16	3.72	3.35	3.04	–	2.55	2.353	2.185	–

CN1CCCC1=O + CCCCCCCCn1cc[n+](C)c1.[Cl-]
x1 = 1
Details	viscosity [mPa·s]
288.15 K	1.989
298.15 K	1.679
303.15 K	1.556
308.15 K	1.441
313.15 K	1.323
323.15 K	1.148
328.15 K	1.065
333.15 K	1.029
